Patent US4940723A, “Use of bis-(5-amidino-2-benzimidazolyl) methane (BABIM) to treat arthritis” (University of North Carolina, Chapel Hill, priority 1988, dated 1990)
Where “and” joins values, the source holds several entries; their conditions need not be identical. Equal entries are not always repeated.

Assays:
[1] = Toxicity observation (physical, behavioral, organ histology) in BABIM-treated rats; format: in vivo, Lewis rats
Experimental: (§1) After the rats were killed, autopsies were performed. The liver, spleen, kidneys, adrenal glands, and the skinned distal hind legs were saved for further examination. The livers were weighed individually, and a sample of each was frozen and held for ELISA of PG-APS fragments. All other tissues were fixed in phosphate-buffered formalin solution. The bones were decalcified in formic acid-sodium citrate solution. Sections were stained with hematoxylin and eosin.
(§2) The dosing with inhibitor was begun two days before the induction of arthritis and was continued on a daily basis through day 6. From

[2] = test system: PG-APS induced granulomatous hepatitis; assay: Liver weight and hepatic granulomata (PG-APS-induced granulomatous hepatitis); format: in vivo, Lewis rats
Experimental: (§3) Inbred female Lewis rats were purchased from Charles River Laboratories, Inc. Their mean body weight at the start of the study was 145 g. Arthritis was induced by a single intraperitoneal injection of the 10S fraction of purified cell wall material in PBS. The volume was 0.5 ml, and the dose of PG-APS was equivalent to 15 μg of rhamnose content per gram of body weight. For the administration of BABIM into the tail vein the animals were lightly anesthetized with ether. The inhibitor was contained in 0.1 ml of saline. Control animals were injected in the same way, but received saline only. All rats had free access to food and water. Nineteen days after the initiation of arthritis, they were killed with an overdose of ether.
as §1, §2

PG-APS deposits in liver = assay: Quantification of PG-APS deposits in liver tissue (ELISA); format: in vivo, Lewis rats
Experimental: Measurements were based on a solid-phase enzyme-linked immunosorbent assay (ELISA) as known in the art. Briefly, microtiter plates were charged with group A cell wall antibodies and non-specific binding sites were blocked with human albumin. The coated walls were interacted with the tissue samples, and retention of PG-APS was determined from phosphate hydrolysis following sequential addition of affinity-purified biotinylated cell wall antibodies, avidin-alkaline phosphatase complexes and enzyme substrate. Standard curves were prepared with various amounts of the 10S PG-APS material and were used to correlate enzyme activity with levels of tissue deposits.
as §3, with “of ether. […]” for “of ether.”

PG-APS-induced arthritis [3] = assay: Clinical scoring of PG-APS-induced arthritis; format: in vivo, Lewis rats
Experimental: as §3
Severity of the arthritis was judged daily for the first 11 days after PG-APS injection and every one to three days. Involvement of each extremity was quantified on a scale from 0-4, yielding a maximum combined score of 16. Grading was restricted to the wrist and ankle joints and all joints distal from there. The individual score was based on the number of joints involved, the degree of cutaneous erythema, the extent of the swelling of the skin and periarticular soft tissue, and the enlargement and deformities of the joints.
The basic design of the experiments was as follows. Arthritis was induced in two groups of rats by the intraperitoneal application of PG-APS fragments. One group of animals received repeated injections of BABIM dissolved in saline, while the other group received saline only. The inhibitor dose of 10 mg/kg body weight was selected because it has been found effective in preliminary studies.
as §2

Cls = conditions: in words; cited from earlier work
trypsin = conditions: in words; cited from earlier work
urokinase = conditions: in words; cited from earlier work
PG-APS-induced arthritis [4] = assay: Histological grading of the severity of PG-APS-induced arthritis (hind leg); format: in vivo, Lewis rats
Experimental: as §3, §1
For this evaluation the hind legs were used because they were more severely involved than the front legs. Both hind legs were studied, but as the disease processes were always symmetrical only one leg was scored. Included in the histologic sections were the distal tibia with the ankle joint, the tarsal bones, and the metatarsals. These were ranked on a scale of 0-4, based on the extent of bone marrow hyperplasia, the density of neutrophilic infiltration in bone and soft tissues, the degree of destruction of trabecular and cortical bone, and the magnitude of the synovial and periosteal proliferative response.
as §2

plasmin = conditions: in words; cited from earlier work
granulomatous splenitis = assay: Splenic granulomatous involvement (PG-APS-induced granulomatous splenitis); format: in vivo, Lewis rats
Experimental: as §3, §1, §2
*Disease was scored on a scale of 0-4, based on the percentage of
granulomatous replacement of splenic parenchyma, where 0 = none, 1 = <25%

Clr = conditions: in words; cited from earlier work
hemolytic complement = conditions: in words; cited from earlier work
[5] = Dissolution in isotonic saline; format: physicochemical
Experimental: BABIM was synthesized according to established procedures. Purity of the compound was ascertained by infrared and nuclear magnetic resonance spectroscopy, thin-layer chromatography and elemental analysis. […] Solutions were prepared fresh on the day they were used.

adjuvant arthritis = conditions: Sprague-Dawley rats; cited from earlier work

N=C(N)c1ccc2nc(Cc3nc4ccc(C(=N)N)cc4[nH]3)[nH]c2c1 [BABIM, bis-(5-amidino-2-benzimidazolyl) methane]
Physical or behavioral abnormalities caused by the drug ([1]; 10 mg/kg, repeated i.v. injections): None of the recipients of BABIM showed any physical or behavioral abnormalities
BABIM related toxicity, histological examination ([1]; liver, kidney, adrenal glands, and spleen): absence of BABIM related toxicity
Reduction in the number of hepatic granulomata ([2]; 0.5 cm^2 liver sections, versus untreated): two-thirds
Granulomata, No. per section, Mean ± SD ([2]; liver, 0.5 cm^2 sections, n=7, P < 0.005 versus vehicle (81.8 ± 34.5)): 25.6 ± 26.3
Percentage of centrally necrotic lesions ([2]; liver, both groups): approximately 50%
Granulomata, % with necrosis ([2]; liver, n=7, vehicle 56): 43%
Weight of Liver, Mean ± SD ([2]; n=7, day 19, P < 0.002 versus vehicle (18.5 ± 3.8)): 11.0 ± 3.5 gm
Size and makeup of hepatic granulomata ([2]; versus untreated animals): same size and makeup
PG-APS deposits, Mean ± SD (PG-APS deposits in liver; liver, n=7, vehicle 0.226 ± 0.072): 0.237 ± 0.055 mg
Total amounts of PG-APS fragments deposited in liver (PG-APS deposits in liver; versus untreated animals): nearly the same
Effect of 10 mg/kg dose in preliminary studies (PG-APS-induced arthritis [3]; 10 mg/kg body weight, preliminary studies): effective
Suppression of clinical signs of arthritis (PG-APS-induced arthritis [3]; FIG. 1, initial response and recurrence, 10 mg/kg): suppressed the clinical signs of arthritis dramatically
Relative suppression of arthritis versus hepatic and splenic granulomatous response (PG-APS-induced arthritis [3]; arthritis component compared with granulomata): more effectively dealt with
Clinical score (individual animal) (PG-APS-induced arthritis [3]; individual BABIM-treated rats, final day (day 19), 10 mg/kg i.v. from day -2, scale 0-4 per extremity, maximum combined 16, 10 mg/kg): 0 and 1 and 2
Treated rats completely free of arthritis at the initial peak (PG-APS-induced arthritis [3]; initial peak): 3 of the 7 treated rats
Clinical score, Mean ± SD (PG-APS-induced arthritis [3]; n=7, final day of experiment, P < 0.0001 versus vehicle (6.79 ± 2.86)): 0.43 ± 0.79
Treated rats without symptoms during the recurrence (PG-APS-induced arthritis [3]; recurrence): five
Blockade of recurrence of the disease (PG-APS-induced arthritis [3]; versus primary response): blocked as completely as the primary response
Inhibition in assays of Cls (Cls): only weakly inhibitory
Trypsin inhibition (trypsin): potent inhibitor
Urokinase inhibition (urokinase): potent inhibitor
Bone marrow composition in calcaneus (PG-APS-induced arthritis [4]; FIG. 2B, day 19): Predominantly fatty marrow
Inflammation of synovial recess of ankle joint (PG-APS-induced arthritis [4]; FIG. 4B, day 19): inflammation is absent
Appearance of joints and bone marrow spaces (PG-APS-induced arthritis [4]; cell wall-injected and BABIM-treated Lewis rats): pristine appearance
BABIM-treated animals with complete absence of histological joint/bone abnormalities (PG-APS-induced arthritis [4]; day 19, FIGS. 2B, 3B, 4B): five
Histologic score (individual animal) (PG-APS-induced arthritis [4]; individual BABIM-treated rats, day 19, scale 0-4, 10 mg/kg i.v., 10 mg/kg): 0 and 1.5 and 1
Histologic score, Mean ± SD (PG-APS-induced arthritis [4]; n=7, day 19, P < 0.0001 versus vehicle (2.81 ± 0.46)): 0.36 ± 0.63
Joint changes in the two BABIM-treated animals that developed joint disease (PG-APS-induced arthritis [4]; versus untreated rats): on a much smaller scale
Plasmin inhibition (plasmin): potent inhibitor
Inhibitor-treated animals with granulomatous inflammation in the spleen (granulomatous splenitis; all untreated rats affected): three
Splenic disease score, Mean ± SD (granulomatous splenitis; n=7, scale 0-4, not significantly different from vehicle 2.63 ± 1.3 (P > 0.2)): 1.71 ± 1.5
BABIM recipients rated the highest splenic grade (score of 4) (granulomatous splenitis; rat, in vivo): three
BABIM recipients with no splenic disease (granulomatous splenitis; rat, in vivo): four
Inhibition in assays of Clr (Clr): only weakly inhibitory
Inhibition in hemolytic complement tests (hemolytic complement): only weakly inhibitory
Solubility in isotonic saline [5]: easily dissolved

N=C(N)c1ccc2cc(OC(=O)c3ccc(N=C(N)N)cc3)ccc2c1 [FUT-175]
Influence on adjuvant arthritis (adjuvant arthritis): beneficial influence
